Data on five compounds can be found in BindingDB's records for doi:10.1016/s0960-894x(99)00495-3 (Tokyo University of Pharmacy & Life Science, 1999).

The nature of this experiment: Compound was evaluated for inhibition of PNP-catalyzed inosine […] in Cellulomonas sp.
Take `O=c1[nH]cnc2c1ncn2C[C@@H]1COC[C@@H]1CC(F)(F)P(=O)(O)O` [{1,1-Difluoro-2-[(3R,4R)-4-(6-oxo-1,6-dihydro-purin-9-ylmethyl)-tetrahydro-furan-3-yl]-ethyl}-phosphonic acid]: the IC50 was found to be 35 nM.
For the compound `O=c1[nH]cnc2c1ncn2CC[C@@H]1C[C@H]1C(F)(F)P(=O)(O)O` [(Difluoro-{(1R,2S)-2-[2-(6-oxo-1,6-dihydro-purin-9-yl)-ethyl]-cyclopropyl}-methyl)-phosphonic acid], the IC50 came to 70 nM.
As for `Nc1nc2c(ncn2CC[C@@H]2C[C@H]2C(F)(F)P(=O)(O)O)c(=O)[nH]1` [({(1R,2S)-2-[2-(2-Amino-6-oxo-1,6-dihydro-purin-9-yl)-ethyl]-cyclopropyl}-difluoro-methyl)-phosphonic acid], the concentration for half-maximal inhibition (IC50) was 390 nM.
In the case of `Nc1nc2c(ncn2CCCCC(F)(F)P(=O)(O)O)c(=O)[nH]1` [9-(5',5'-difluoro-5'-phosphonopentyl)guanine] it was 540 nM; in that of `O=c1[nH]cnc2c1ncn2C[C@H]1COC[C@@H]1CC(F)(F)P(=O)(O)O` [{1,1-Difluoro-2-[(3R,4S)-4-(6-oxo-1,6-dihydro-purin-9-ylmethyl)-tetrahydro-furan-3-yl]-ethyl}-phosphonic acid], 37 nM.
